Test results reported in patent US9446017B2, “Compositions and methods for treating herpes simplex virus” (Augusta University Research Institute, Inc., priority 2005, dated 2016).
Values joined by “and” are separate entries in the source; they are usually repeats but may differ in a detail not shown here. Equal entries are not always repeated. “Also recorded” adds a separate entry of the source.

Columns and labels:
Vero cells [1] = experiment: Cell viability assay, trypan blue and hemocytometer direct cell count; settings: for Dead cells / Live cells: FIG. 1 axis Vero cells/ml
Procedure: Vero cells were plated in 6 well plates and after a period of 24 hours different concentrations of EGCG or EGCG-ester (12.5, 25, 50, 75, 100 μM) were added to each well, respectively. After one hour, the polyphenols were aspirated and the cells were washed with PBS. DMEM media was put back into each well and cells were incubated for 24 hrs. Cells were then counted using a hemocytometer and trypan blue which stains the dead cells blue and leaves the live cells white.
The cell viability was determined by using trypan blue and hemacytometer direct cell count to detect the effect of EGCG-ester on Vero cells.

Vero cells [2] = experiment: Cell proliferation assay (MTS tetrazolium, absorbance 490 nm); format: cell-based, green monkey; settings: for absorbance at 490 nm (single reading): 1 hour, read 24 hours later; for inhibition of cell proliferation: up to 75 μM, compared to controls
Procedure: A cell proliferation kit (G5421, Promega Corp.) was used. This is a colorimetric method for determining cell proliferation. This kit contains a tetrazolium compound and an electron-coupling reagent (phenazine methosulfate). Only live cells will be able to bioreduce the tetrazolium compound into soluble formazan. Thus, the amount of formazan formed and measured at 490 nm absorbance is directly proportional to the number of live cells. Cells were plated into 96 well plates and after 24 hrs they were treated with different concentrations (12.5, 25, 50, 75, 100 μM) of polyphenols and allowed to adsorb for 1 hour. Polyphenols were then aspirated and 100 μL of fresh DMEM was added back to each well. 24 hours later, 20 μL of the MTS reagent was added to every 100 μL of cells in media. The plates were incubated at 37° C. and 5% CO2 for 4 hours, and then the absorbance was read using a plate reader. […] In this study, cell proliferation was examined under the same conditions as described before. Each experiment was assayed in triplicates, and absorbance of this colorimetric assay was recorded at 490 nm using a 96 well ELISA plate reader.

Vero cells [3] = experiment: Cytotoxicity assay, morphological and proliferation changes by microscope; format: cell-based, green monkey; settings: for change of cell morphology: 12.5 to 75 μM; for maximum nontoxic concentration: Vero cells; for effect on the cells: higher concentration
Procedure: Cells were studied for morphological and proliferation changes 48 hrs later using an ACCU-Scope 3002 microscope with a camera attached. […] Cells were studied for morphological and proliferation changes 24 hrs later using an ACCU-Scope 3002 microscope with a camera attached. In order to determine the proper concentrations of EGCG and EGCG-ester to be used for treating HSV1, the effect of polyphenols on the cells were studied. […] In this experiment, the polyphenols were added at the same time as the cells were plated and were not removed subsequently. The effect of different concentrations of EGCG-ester on Vero cells was also observed at 24 hrs. […] EGCG-ester was then aspired, and cells were observed 24 hours later.

HSV1 [4] = experiment: Fluorescence microscopy of GFP-HSV1 lytic cycle in Vero cells; format: cell-based; settings: for virus replication and formation of virions: virus treated with 100 μM
Procedure: Cells were grown on glass cover slips and allowed to reach confluence. They were then infected with either control HSV or previously treated HSV for 1 hour. Time course studies were performed in which the virus was allowed to adsorb for 1 hour and then aspirated. Cells were washed with PBS and media was added to each well. After a period of 8, 10, and 12 hours, cells were then fixed with a 1:1 acetone and methanol solution and visualized under a Zeiss Axiovision fluorescence microscope using differential interference contrast settings.
HSV1/Vero cells were used as positive controls and Vero cells were used as negative control. 75 μM EGCG ester-HSV1/Vero cells were also monitored and compared to controls. GFP-HSV1, DAPI stained nucleus and lysosome stain were used to identify cytopathic effects on Vero cells. The course study was performed in triplicates.

HSV1 [5] = experiment: Viral titer study using plaque assay, HSV virions pre-treated with polyphenol, Vero cells; format: cell-based
Procedure: Vero cells were plated on 6 well plates and allowed to reach confluence. HSV virions were treated for 1 hour with the respective concentration of polyphenols (12.5, 25, 50, 75, 100 μM) prior to cell infection. Cells were then infected with HSV and allowed to adsorb for 1 hour. Viruses that had not been absorbed were then aspirated. Plates were then overlaid with a nutrient medium-containing agar. Plaques were visualized by staining cells with crystal violet, observed, and counted within 50 hours.
Viral titer was determined to study the effect of 50 μM of EGCG and EGCG-ester on the viral particle production by using plaque assay. Serial dilutions of viral lysates were performed from 10^−1 to 10^−7 and cells were then infected respectively with the dilutions.
In order to obtain the minimum inhibitory concentration of EGCG-ester on HSV1, different concentrations (12.5, 25, 50, 75 μM) of EGCG-ester were used at lower dilution of viral lysate (10^−1 and 10^−2).

[6] = 100 μM, Vero cells, replicate counts
[7] = 75 μM, 8 to 12 hours post infection

O=C(O[C@@H]1Cc2c(O)cc(O)cc2O[C@@H]1c1cc(O)c(O)c(O)c1)c1cc(O)c(O)c(O)c1 [EGCG, (−)-epigallocatechin-3-gallate, reference compound]
Cells (Vero cells [1]; [6]): 167 and 292 and 347
Cells dead (Vero cells [1]; [6]): 119 and 134 and 184
absorbance at 490 nm, Mean (Vero cells [2]; 12.5 μM): 0.607
absorbance at 490 nm (single reading) (Vero cells [2]; 12.5 μM): 0.615 and 0.606 and 0.601
absorbance at 490 nm, Mean (Vero cells [2]; 25 μM): 0.621
absorbance at 490 nm (single reading) (Vero cells [2]; 25 μM): 0.628 and 0.620 and 0.616
absorbance at 490 nm, Mean (Vero cells [2]; 50 μM): 0.603
absorbance at 490 nm (single reading) (Vero cells [2]; 50 μM): 0.632 and 0.587 and 0.589
absorbance at 490 nm, Mean (Vero cells [2]; 75 μM): 0.647
absorbance at 490 nm (single reading) (Vero cells [2]; 75 μM): 0.645 and 0.652
absorbance at 490 nm, Mean (Vero cells [2]; 100 μM): 0.698
absorbance at 490 nm (single reading) (Vero cells [2]; 100 μM): 0.688 and 0.677 and 0.730
inhibition of cell proliferation (Vero cells [2]): not inhibiting cell proliferation to a great extent
morphological changes (Vero cells [3]; 12.5-100 μM, added when cells were plated, not removed, observed at 48 hrs): no morphological changes
change of cell morphology (Vero cells [3]): do not induce a change cell morphology
maximum nontoxic concentration (Vero cells [3]): 75 µM
effect on the cells (Vero cells [3]): not significantly affected
virus replication and formation of virions (HSV1 [4]): not able to replicate and form more virions
fold decrease in titer / plaque formation vs HSV1/Vero (HSV1 [5]; 50 μM): 10 fold
viral titer (HSV1 [5]; HSV1 treated with 50 μM polyphenol before infection of Vero cells): 1×10^5 PFU/ml

CCCCCCCCCCCCCCCC(=O)Oc1c(O)cc([C@H]2Oc3cc(O)cc(O)c3C[C@H]2OC(=O)c2cc(O)c(O)c(O)c2)cc1O [EGCG-ester]
% of death (Vero cells [1]; 12.5 μM): 10%
Dead cells (Vero cells [1]; 12.5 μM): 2.7E+06
Live cells (Vero cells [1]; 12.5 μM): 2.56E+07
% of death (Vero cells [1]; 25 μM): 10%
Dead cells (Vero cells [1]; 25 μM): 2.95E+06
Live cells (Vero cells [1]; 25 μM): 2.72E+07
% of death (Vero cells [1]; 50 μM): 10%
Dead cells (Vero cells [1]; 50 μM): 2.90E+06
Live cells (Vero cells [1]; 50 μM): 2.89E+07
% of death (Vero cells [1]; 75 μM): 10%
Dead cells (Vero cells [1]; 75 μM): 1.70E+06
Live cells (Vero cells [1]; 75 μM): 2.71E+07
maximum nontoxic concentration (Vero cells [1]; Vero cells): 75 µM
percentage of cell death (Vero cells [1]; increasing concentration, compared to control): not changed; also recorded: did not change much
absorbance at 490 nm, Mean (Vero cells [2]; 12.5 μM): 0.627
absorbance at 490 nm (single reading) (Vero cells [2]; 12.5 μM): 0.642 and 0.647 and 0.574
absorbance at 490 nm, Mean (Vero cells [2]; 25 μM): 0.647
absorbance at 490 nm (single reading) (Vero cells [2]; 25 μM): 0.668 and 0.651 and 0.621
absorbance at 490 nm, Mean (Vero cells [2]; 50 μM): 0.676
absorbance at 490 nm (single reading) (Vero cells [2]; 50 μM): 0.663 and 0.698 and 0.667
absorbance at 490 nm, Mean (Vero cells [2]; 75 μM): 0.653
absorbance at 490 nm (single reading) (Vero cells [2]; 75 μM): 0.582 and 0.689 and 0.687
absorbance at 490 nm, Mean (Vero cells [2]; 100 μM): 0.717
absorbance at 490 nm (single reading) (Vero cells [2]; 100 μM): 0.691 and 0.741 and 0.719
inhibition of cell proliferation (Vero cells [2]): not inhibiting cell proliferation to a great extent
cell morphology (Vero cells [3]; 100 μM, added when cells were plated, not removed, 48 hrs): affected to a certain extent
cell morphology (Vero cells [3]; 12.5-100 μM for 1 hour on cells plated 24 hours, observed 24 hours later): not greatly affected
change of cell morphology (Vero cells [3]): do not induce a change cell morphology
maximum nontoxic concentration (Vero cells [3]): 75 µM
effect on the cells (Vero cells [3]): not significantly affected
inhibition of HSV1 infections (HSV1 [4]; [7]): able to inhibit HSV1 infections
visible viral particles in infected cells (HSV1 [4]; [7]): almost no virions
GFP expression in green fluorescence images (HSV1 [4]; 75 μM, 8 hrs post infection): almost none
virus replication and formation of virions (HSV1 [4]): not able to replicate and form more virions
reduction of HSV1 ability to form plaques (HSV1 [5]; 50 μM EGCG-ester and above, viral lysate dilution 10^−1 and 10^−2): > 99%
plaque (PFU) formation (HSV1 [5]; 50 μM and above): no plaques observed; also recorded: completely inhibits PFU formation
plaque formation (HSV1 [5]; 50 μM, viral lysate dilutions 10^−1 to 10^−7): no plaque formation
